In assay [1] the target is HLA-DRB1*0401 (Homo sapiens (Human), UniProt P01903+P01911, A100K/A169T/DEL228-266/F76Y/I96L/K127E/L162R/M171V/N62H/P40V/Q125Y/R42H/S133A/S149N/S66Y/V115G/V209L/W38E). Put plainly: HLA-DR4 HTRF assay. The assay is classed as binding. To be noted: inhibition of loading of Alexa Fluor 647-labeled Cit-CII peptide onto HLA-DR4 (CLIP cleaved). In outline: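 HLA-DRB1*04:01 construct (α/β fused to human Fc, CLIP pre-cleaved by HRV3C overnight at 4° C) at 3 nM was preincubated 45 min with compound and 1 nM anti-Fc-Tb donor, then 40 nM Alexa647-Cit-CII1236-1249 peptide added. After 90 min at 37° C, the 665/620 nm HTRF ratio gave % inhibition; IC50 by nonlinear regression.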
On the technique in general: TR-FRET usually uses a lanthanide donor and a delayed reading to cut background.

In assay [2] the test system is HLA-DR4 restricted mouse T cell hybridoma line (DR4.CII.36.8) with HLA-DRB1*04:01-expressing Boleth cells. Put plainly: HLA-DR4-restricted peptide-specific T cell-based assay (hybridoma assay). To be noted: Mus musculus, T-cell, 6 h, inhibition of IL-2 production, CII259-273 peptide presented by Boleth cells. In outline: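 Boleth cells (HLA-DRB1*04:01 B cell line) pre-incubated with compound 1 h at 37° C. in DMEM/1% FCS, then DR4.CII.36.8 mouse T cell hybridoma (CII259-273-specific) added for 6 h with CII259-273 peptide. Supernatant mouse IL-2 by AlphaLISA; IC50 by 4-PL fit of 8-point duplicate titrations.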

In assay [3] the test system is human peripheral blood CD4+ helper T cells. Put plainly: Pan-CD4+ T cell activation (off-target assay). To be noted: Homo sapiens, T-cell, 24 h, anti-CD3/anti-CD28 stimulation, IL-2 production by ELISA. The format is cell-based. From the text:
The counter-screening was made through an HLA-DR-independent assay (Pan-CD4+ T cell activation assay), i.e., TCR-stimulated pan-T cell activation assay, and consists of activating T cell directly with agonistic antibody targeting the T cell receptor. The lack of inhibition in the counter-screening assay reflects that the inhibition of T cell activation in the HLA-DR4 restricted peptide-specific T cell based assay with the small molecule inhibitors is due to impaired antigen presentation on HLA-DR to the T cell and not due to a direct inhibition of the T cell function by an off-target mechanism (i.e., independently of targeting HLA-DR).
Pan-CD4+ T Cell Activation
Compounds were tested using a pan-T cell activation assay. In this assay, anti-human CD3 antibody (BD Pharmingen #55336) pre-coated at 1 μg/mL to a 96-well assay plate and 1 μg/ml soluble anti-human CD28 (EBioscience #16-0289-85) antibody were used for activating human peripheral blood CD4+ helper T cells (no HLA-DR-expressing APC were present in this assay format), in the presence of compounds (or vehicle control) for 24 hrs. IL-2 production was measured in the culture supernatant by ELISA (Human IL-2 Duo Set ELISA #DY202 from R&D Systems).
Background: In an ELISA, binding on a coated surface is turned into a signal by an enzyme label.

Each structure is given as a SMILES string. pIC50: −log10 of the molar value.

On to `Cc1cc2c(c(C)c1O[C@@H](c1ccncc1)c1ccc(C(N)=O)cc1)OCCC2=O` (single isomer, unassigned) [Example 89a, (*R)-4-(((6,8-dimethyl-4-oxochroman-7-yl)oxy)(pyridin-4-yl)methyl)benzamide], for which the values for the negative logarithm of the IC50 (pIC50) in assay [1], in assay [2] and in assay [3] were 6.33, 5.74 and 5.33, respectively.

`C[C@@H]1COc2cc(O[C@H](c3ccncc3)c3ccc(C(N)=O)cc3)ccc2C1=O` (single isomer, unassigned) [Example 44a, 4-((*S)—(((*R)-3-Methyl-4-oxochroman-7-yl)oxy)(pyridin-4-yl)methyl)benzamide]: the pIC50 in assay [1] is 5.80; in assay [2] it was 5.80; in assay [3], under 4.82.

As to `CC[C@H]1COc2cc(O[C@@H](c3ccncc3)c3ccc(C(N)=O)cc3)ccc2C1=O` (single isomer, unassigned) [Example 46b, 4-((*R)—(((*S)-3-ethyl-4-oxochroman-7-yl)oxy)(pyridin-4-yl)methyl)benzamide], the values for the pIC50 in assay [1], in assay [2] and in assay [3] were 5.89, 6.77 and 5.30, respectively.

Consider `Cc1cc([C@H](Oc2ccc3c(c2)OCCC3=O)c2ccc(C(N)=O)cc2)ccn1` (single isomer, unassigned) [Example 15a, (*R)-4-((2-Methylpyridin-4-yl)((4-oxochroman-7-yl)oxy)methyl)benzamide], for which the pIC50 was 6.36 in assay [1], 6.21 in assay [2] and under 4.82 in assay [3].

As for `COc1ccc(COc2cccc([C@@H](Oc3ccc4c(c3)OCCC4=O)c3ccncc3)c2)cc1` (single isomer, unassigned) [Example 4b, (*S)-7-((3-((4-Methoxybenzyl)oxy)phenyl)(pyridin-4-yl)methoxy)chroman-4-one], the pIC50 in assay [1] is 5.10; in assay [2], 5.59; in assay [3], 4.82.

For the compound `NC(=O)c1ccc([C@@H](Oc2ccc3c(c2)OCCC3=O)c2cccnc2)cc1` (single isomer, unassigned) [Example 31a, (*R)-4-(((4-oxochroman-7-yl)oxy)(pyridin-3-yl)methyl)benzamide], the pIC50 in assay [1] is 6.07; in assay [2], 5.26; in assay [3] it was 4.82.

As for `Cc1c(O[C@H](c2ccc(C(N)=O)cc2)c2cccc(C#N)c2)c(F)cc2c1OCCC2=O` (single isomer, unassigned) [Example 92a, (*R)-4-((3-cyanophenyl)((6-fluoro-8-methyl-4-oxochroman-7-yl)oxy)methyl)benzamide], the pIC50 in assay [1] was 6.52; in assay [2], 6.51; in assay [3], 5.00.

Take `Cc1c(O[C@@H](c2ccncc2)c2ccc(C(N)=O)cc2OCC(C)C)ccc2c1OCCC2=O` (single isomer, unassigned) [Example 85b, (*S)-3-isobutoxy-4-(((8-methyl-4-oxochroman-7-yl)oxy)(pyridin-4-yl)methyl)benzamide]: the pIC50 in assay [1] is 5.96; in assay [2] it was 5.41; in assay [3], 6.33.

For `CNC(=O)c1ccc([C@H](Oc2ccc3c(c2)OCCC3=O)c2ccncc2)cc1` (single isomer, unassigned) [Example 34b, (*S)—N-methyl-4-(((4-oxochroman-7-yl)oxy)(pyridin-4-yl)methyl)benzamide], the pIC50 was 6.16 in assay [1], under 4.82 in assay [2] and under 4.82 in assay [3].

For the compound `NC(=O)c1ccc([C@H](Oc2ccc3c(c2-c2ccccc2)OCCC3=O)c2ccncc2)cc1` (single isomer, unassigned) [Example 53b, (*S)-4-(((4-oxo-8-phenylchroman-7-yl)oxy)(pyridin-4-yl)methyl)benzamide], the pIC50 in assay [1] was 6.22; in assay [2], 6.35; in assay [3], 5.49.

Consider `NC(=O)c1ccc([C@H](Oc2ccc3c(c2)O[C@@H](c2ccccc2)CC3=O)c2ccncc2)cc1` (single isomer, unassigned) [Example 42a, 4-((*S)—(((*R)-4-oxo-2-phenylchroman-7-yl)oxy)(pyridin-4-yl)methyl)benzamide], for which the pIC50 is 5.42 in assay [1], 4.96 in assay [2] and under 4.82 in assay [3].

As for `Cc1c(OC2CCc3cc(C(N)=O)ccc32)ccc2c1OCCC2=O` (racemic) [Example 121, (R,S)-1-((8-Methyl-4-oxochroman-7-yl)oxy)-2,3-dihydro-1H-indene-5-carboxamide], the pIC50 was 6.20 in assay [1], 5.09 in assay [2] and under 4.82 in assay [3].

`Cc1cc([C@@H](Oc2ccc3c(c2C)OCCC3=O)c2ccc(C(N)=O)cc2)cc(C)n1` (single isomer, unassigned) [Example 111b, (*S)-4-((2,6-dimethylpyridin-4-yl)((8-methyl-4-oxochroman-7-yl)oxy)methyl)benzamide]: the pIC50 is 6.25 in assay [1], 7.68 in assay [2] and 5.32 in assay [3].

Turning to `Cc1c(O[C@@H](c2ccc(C(N)=O)cc2)c2ccc(C(=O)O)cc2)ccc2c1OCCC2=O` (single isomer, unassigned) [Example 71b, (*S)-4-((4-carbamoylphenyl)((8-methyl-4-oxochroman-7-yl)oxy)methyl)benzoic acid], the results for the pIC50 in assay [1], in assay [2] and in assay [3] were 6.03, 6.70 and under 4.82, respectively.

Regarding `Cc1c(O[C@H](c2ccccc2)c2ccc(C(=O)O)cc2)ccc2c1OCCC2=O` (single isomer, unassigned) [Example 70a, (*R)-4-(((8-methyl-4-oxochroman-7-yl)oxy)(phenyl)methyl)benzoic acid], the values for the pIC50 in assay [1], in assay [2] and in assay [3] were 5.89, 5.15 and 5.33, respectively.

Take `O=C1CCOc2cc(O[C@H](c3ccncc3)c3cccc(O)c3)ccc21` (single isomer, unassigned) [Example 5a, (*R)-7-((3-Hydroxyphenyl)(pyridin-4-yl)methoxy)chroman-4-one]: the pIC50 is 4.85 in assay [1], 5.72 in assay [2] and 5.55 in assay [3].

For `Cc1c(O[C@@H](c2ccncc2)c2ccc(C(N)=O)cc2OC(C)C)ccc2c1OCCC2=O` (single isomer, unassigned) [Example 84b, (*S)-3-isopropoxy-4-(((8-methyl-4-oxochroman-7-yl)oxy)(pyridin-4-yl)methyl)benzamide], the values for the pIC50 in assay [1], in assay [2] and in assay [3] were over 6.00, 5.19 and 5.77, respectively.

Turning to `COc1ccc(COc2ccc([C@@H](Oc3ccc4c(c3)OCCC4=O)c3ccncc3)cc2)cc1` (single isomer, unassigned) [Example 17a, (*R)-7-((4-((4-Methoxybenzyl)oxy)phenyl)(pyridin-4-yl)methoxy)chroman-4-one], the values for the pIC50 in assay [1], in assay [2] and in assay [3] were 5.24, 5.37 and 4.82, respectively.

For the compound `Cc1c(O[C@H](c2ccc(Cl)cc2)c2ccc(C(N)=O)cn2)ccc2c1OCCC2=O` (single isomer, unassigned) [Example 63a, (*R)-6-((4-chlorophenyl)((8-methyl-4-oxochroman-7-yl)oxy)methyl)nicotinamide], the pIC50 in assay [1] was 5.80; in assay [2], under 4.82.

`Cc1c(O[C@@H]2CCc3cc(C(N)=O)ccc32)ccc2c1OCCC2=O` (single isomer, unassigned) [Example 121a, (*R)-1-((8-methyl-4-oxochroman-7-yl)oxy)-2,3-dihydro-1H-indene-5-carboxamide]: the pIC50 is 6.03 in assay [1] and under 4.82 in assay [2].

The term pIC50 denotes the IC50 on a negative log10 scale, so that one unit is a factor of ten. Read a high pIC50 as a low IC50.

The record behind these values is US12516038B2, “Inhibitors of antigen presentation by HLA-DR” (Janssen Pharmaceutica NV, priority 2020, dated 2026).
